The source made the active and inactive calls. No cut-off for these calls is given here.
Experiments:
[1] = biological target: Dual specificity tyrosine-phosphorylation-regulated kinase 1B (Homo sapiens) (UniProt Q9Y463); assay: Inhibition of human DYRK1B at 1 uM using substrate peptide by off-chip mobility shift assay
[2] = biological target: Cyclin-dependent kinase 2/cyclin E1 (Homo sapiens) (UniProt P24864+P24941); assay: Inhibition of human CDK2/CycE1 at 1 uM using substrate peptide by off-chip mobility shift assay; format: protein-complex assay
[3] = biological target: Serine/threonine-protein kinase Sgk1 (Homo sapiens) (UniProt O00141); assay: Inhibition of human SGK at 1 uM using substrate peptide by off-chip mobility shift assay
[4] = biological target: Death-associated protein kinase 1 (Homo sapiens) (UniProt P53355); assay: Inhibition of human DAPK1 at 1 uM using substrate peptide by off-chip mobility shift assay
[5] = biological target: Calcium/calmodulin-dependent protein kinase type IV (Homo sapiens) (UniProt Q16566); assay: Inhibition of human CaMK4 at 1 uM using substrate peptide by off-chip mobility shift assay
[6] = biological target: Interleukin-1 receptor-associated kinase 4 (Homo sapiens) (UniProt Q9NWZ3); assay: Inhibition of human JNK2 at 1 uM using substrate peptide by off-chip mobility shift assay
Sequence of Interleukin-1 receptor-associated kinase 4 (Homo sapiens) (Q9NWZ3 whole entry): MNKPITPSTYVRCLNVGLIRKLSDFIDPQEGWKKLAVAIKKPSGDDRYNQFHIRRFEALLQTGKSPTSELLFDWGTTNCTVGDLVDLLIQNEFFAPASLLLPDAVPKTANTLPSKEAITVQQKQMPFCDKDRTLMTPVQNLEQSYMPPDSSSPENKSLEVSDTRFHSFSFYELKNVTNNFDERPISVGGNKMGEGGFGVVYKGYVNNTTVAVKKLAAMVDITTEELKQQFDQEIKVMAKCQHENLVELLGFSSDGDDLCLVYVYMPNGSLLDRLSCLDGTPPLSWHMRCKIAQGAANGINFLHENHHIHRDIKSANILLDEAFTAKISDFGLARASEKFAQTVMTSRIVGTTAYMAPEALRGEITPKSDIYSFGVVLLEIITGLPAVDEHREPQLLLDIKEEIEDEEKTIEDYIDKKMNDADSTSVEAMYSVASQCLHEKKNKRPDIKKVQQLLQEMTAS

[7] = biological target: RAC-alpha serine/threonine-protein kinase (Homo sapiens) (UniProt P31749); assay: Inhibition of human AKT1 at 1 uM using substrate peptide by off-chip mobility shift assay
[8] = biological target: Mitogen-activated protein kinase 14 (Homo sapiens) (UniProt Q16539); assay: Inhibition of human p38alpha at 1 uM using substrate peptide by off-chip mobility shift assay
Sequence of Mitogen-activated protein kinase 14 (Homo sapiens) (Q16539 whole entry): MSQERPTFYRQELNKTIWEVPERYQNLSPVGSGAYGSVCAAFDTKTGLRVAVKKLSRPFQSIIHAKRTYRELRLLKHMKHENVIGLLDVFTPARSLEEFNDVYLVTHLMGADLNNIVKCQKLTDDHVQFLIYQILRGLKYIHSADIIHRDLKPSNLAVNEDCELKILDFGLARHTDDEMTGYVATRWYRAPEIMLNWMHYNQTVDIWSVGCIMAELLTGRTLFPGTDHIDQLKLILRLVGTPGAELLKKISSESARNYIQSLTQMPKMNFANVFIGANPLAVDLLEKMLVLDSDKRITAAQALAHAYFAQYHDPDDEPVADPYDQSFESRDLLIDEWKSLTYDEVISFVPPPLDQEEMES

[9] = biological target: Serine/threonine-protein kinase 4 (Homo sapiens) (UniProt Q13043); assay: Inhibition of human MST1 at 1 uM using substrate peptide by off-chip mobility shift assay
Sequence of Serine/threonine-protein kinase 4 (Homo sapiens) (Q13043 whole entry): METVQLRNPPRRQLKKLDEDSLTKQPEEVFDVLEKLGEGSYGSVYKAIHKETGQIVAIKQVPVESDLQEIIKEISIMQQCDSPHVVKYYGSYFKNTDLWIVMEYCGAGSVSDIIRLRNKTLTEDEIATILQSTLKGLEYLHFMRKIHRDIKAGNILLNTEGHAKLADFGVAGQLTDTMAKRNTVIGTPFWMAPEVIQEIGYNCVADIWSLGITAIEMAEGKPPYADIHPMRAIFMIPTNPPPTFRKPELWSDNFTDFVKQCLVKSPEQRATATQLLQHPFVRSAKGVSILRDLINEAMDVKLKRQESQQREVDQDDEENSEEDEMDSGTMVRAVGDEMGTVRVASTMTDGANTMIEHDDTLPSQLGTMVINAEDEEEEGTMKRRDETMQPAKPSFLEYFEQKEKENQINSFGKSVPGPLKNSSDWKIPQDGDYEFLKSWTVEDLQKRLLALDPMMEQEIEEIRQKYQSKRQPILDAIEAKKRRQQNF

[10] = biological target: CDK7/Cyclin H/MNAT1 (Homo sapiens) (UniProt P51946+P50613+P51948); assay: Inhibition of human CDK7/CycH/MAT1 at 1 uM using substrate peptide by off-chip mobility shift assay; format: protein-complex assay
[11] = biological target: CDK9/cyclin T1 (Homo sapiens) (UniProt O60563+P50750); assay: Inhibition of human CDK9/CycT1 at 1 uM using substrate peptide by off-chip mobility shift assay; format: protein-complex assay
[12] = biological target: Aurora kinase A (Homo sapiens) (UniProt O14965); assay: Inhibition of human Aurora A at 1 uM using substrate peptide by off-chip mobility shift assay
[13] = organism: Homo sapiens; assay: Inhibition of human p70S6K at 1 uM using substrate peptide by off-chip mobility shift assay
[14] = biological target: Cyclin-dependent kinase 5/CDK5 activator 1 (Homo sapiens) (UniProt Q00535+Q15078); assay: Inhibition of human CDK5/p25 at 1 uM using substrate peptide by off-chip mobility shift assay; format: protein-complex assay
[15] = biological target: cAMP-dependent protein kinase catalytic subunit alpha (Homo sapiens) (UniProt P17612); assay: Inhibition of human PKACalpha at 1 uM using substrate peptide by off-chip mobility shift assay
[16] = biological target: AMP-activated protein kinase (AMPK) alpha-1/beta-1/gamma-1 (Homo sapiens) (UniProt P54619+Q9Y478+Q13131); assay: Inhibition of human AMPKalpha1/beta1/gamma1 at 1 uM using substrate peptide by off-chip mobility shift assay
[17] = biological target: Serine/threonine-protein kinase PAK 2 (Homo sapiens) (UniProt Q13177); assay: Inhibition of human PAK2 at 1 uM using substrate peptide by off-chip mobility shift assay
[18] = biological target: Cyclin-dependent kinase 19 (Homo sapiens) (UniProt Q9BWU1); assay: Inhibition of CDK19 (unknown origin) at 1 uM incubated for 30 mins by ELISA
Sequence of Cyclin-dependent kinase 19 (Homo sapiens) (Q9BWU1 whole entry): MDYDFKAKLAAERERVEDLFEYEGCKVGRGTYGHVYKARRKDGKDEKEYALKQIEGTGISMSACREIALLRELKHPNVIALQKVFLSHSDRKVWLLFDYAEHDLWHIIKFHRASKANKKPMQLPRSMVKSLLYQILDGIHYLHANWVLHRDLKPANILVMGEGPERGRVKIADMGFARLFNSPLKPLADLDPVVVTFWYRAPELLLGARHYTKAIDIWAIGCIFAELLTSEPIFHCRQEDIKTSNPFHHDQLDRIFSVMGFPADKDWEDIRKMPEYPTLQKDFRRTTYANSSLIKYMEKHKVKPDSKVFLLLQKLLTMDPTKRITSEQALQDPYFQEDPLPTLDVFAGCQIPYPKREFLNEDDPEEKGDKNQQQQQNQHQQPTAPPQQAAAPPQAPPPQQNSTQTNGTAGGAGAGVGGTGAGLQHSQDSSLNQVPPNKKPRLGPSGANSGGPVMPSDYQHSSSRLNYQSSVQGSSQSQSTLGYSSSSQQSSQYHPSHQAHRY

[19] = biological target: Interleukin-1 receptor-associated kinase 4 (Homo sapiens) (UniProt Q9NWZ3); assay: Inhibition of human IRAK4 at 1 uM using substrate peptide by off-chip mobility shift assay
[20] = biological target: Serine/threonine-protein kinase Nek2 (Homo sapiens) (UniProt P51955); assay: Inhibition of human NEK2 at 1 uM using substrate peptide by off-chip mobility shift assay
[21] = tested on: MV4-11; assay: Inhibition of cell proliferation of human MV4-11 cells at 1 uM incubated for 3 days by CellTiter 96 aqueous one solution cell proliferation assay; format: functional; details: MV4-11, 72 h, time 3 day
[22] = biological target: Serine/threonine-protein kinase pim-1 (Homo sapiens) (UniProt P11309); assay: Inhibition of human PIM1 at 1 uM using substrate peptide by off-chip mobility shift assay
[23] = biological target: Mitogen-activated protein kinase kinase kinase kinase 2 (Homo sapiens) (UniProt Q12851); assay: Inhibition of human MAP4K2 at 1 uM using substrate peptide by off-chip mobility shift assay
[24] = biological target: CDK2/Cyclin C (Homo sapiens) (UniProt P24941+P24863); assay: Inhibition of human CDK2/CycC2 at 1 uM using substrate peptide by off-chip mobility shift assay
[25] = biological target: Inhibitor of nuclear factor kappa-B kinase subunit beta (Homo sapiens) (UniProt O14920); assay: Inhibition of human IKKbeta at 1 uM using substrate peptide by off-chip mobility shift assay
[26] = biological target: Cyclin-dependent kinase 1/cyclin B1 (Homo sapiens) (UniProt P06493+P14635); assay: Inhibition of human CDC2/CycB1 at 1 uM using substrate peptide by off-chip mobility shift assay; format: protein-complex assay
Sequence of Cyclin-dependent kinase 1/cyclin B1 (Homo sapiens) (P06493 whole entry, looked up): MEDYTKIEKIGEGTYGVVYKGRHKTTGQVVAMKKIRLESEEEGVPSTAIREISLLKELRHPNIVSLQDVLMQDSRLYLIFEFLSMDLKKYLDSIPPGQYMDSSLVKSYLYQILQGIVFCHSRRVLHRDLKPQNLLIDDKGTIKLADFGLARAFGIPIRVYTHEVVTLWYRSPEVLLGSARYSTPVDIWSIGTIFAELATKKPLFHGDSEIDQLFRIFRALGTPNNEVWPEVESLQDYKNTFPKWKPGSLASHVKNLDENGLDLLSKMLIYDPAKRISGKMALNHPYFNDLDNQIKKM
Sequence of Cyclin-dependent kinase 1/cyclin B1 (Homo sapiens) (P14635 whole entry, looked up): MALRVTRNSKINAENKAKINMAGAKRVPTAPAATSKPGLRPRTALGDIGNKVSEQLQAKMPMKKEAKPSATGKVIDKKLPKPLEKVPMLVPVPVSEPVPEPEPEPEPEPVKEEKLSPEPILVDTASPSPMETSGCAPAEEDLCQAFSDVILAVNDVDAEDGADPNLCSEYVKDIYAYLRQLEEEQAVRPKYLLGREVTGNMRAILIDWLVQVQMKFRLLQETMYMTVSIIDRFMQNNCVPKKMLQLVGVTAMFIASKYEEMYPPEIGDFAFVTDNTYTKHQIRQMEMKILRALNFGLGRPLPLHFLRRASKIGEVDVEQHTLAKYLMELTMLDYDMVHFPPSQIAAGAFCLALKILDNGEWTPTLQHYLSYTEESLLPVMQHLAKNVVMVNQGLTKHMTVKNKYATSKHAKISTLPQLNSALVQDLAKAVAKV

[27] = biological target: Lymphokine-activated killer T-cell-originated protein kinase (Homo sapiens) (UniProt Q96KB5); assay: Inhibition of human PBK at 1 uM using substrate peptide by off-chip mobility shift assay
[28] = biological target: CDK8/Cyclin C (Homo sapiens) (UniProt P49336+P24863); assay: Inhibition of human CDK8/cyclin C at 1 uM incubated for 30 mins by ELISA; format: protein-complex assay
[29] = biological target: CDK6/cyclin D3 (Homo sapiens) (UniProt P30281+Q00534); assay: Inhibition of human CDK6/cyclinD3 at 1 uM using substrate peptide by off-chip mobility shift assay; format: protein-complex assay
[30] = biological target: 3-phosphoinositide-dependent protein kinase 1 (Homo sapiens) (UniProt O15530); assay: Inhibition of human PDK1 at 1 uM using substrate peptide by off-chip mobility shift assay
[31] = biological target: Mitogen-activated protein kinase 1 (Homo sapiens) (UniProt P28482); assay: Inhibition of human ERK2 at 1 uM using substrate peptide by off-chip mobility shift assay
[32] = biological target: Serine/threonine-protein kinase Chk1 (Homo sapiens) (UniProt O14757); assay: Inhibition of human CHK1 at 1 uM using substrate peptide by off-chip mobility shift assay
[33] = biological target: Mitogen-activated protein kinase kinase kinase kinase 4 (Homo sapiens) (UniProt O95819); assay: Inhibition of human HGK at 1 uM using substrate peptide by off-chip mobility shift assay
[34] = biological target: Glycogen synthase kinase-3 beta (Homo sapiens) (UniProt P49841); assay: Inhibition of human GSK3beta at 1 uM using substrate peptide by off-chip mobility shift assay
[35] = biological target: Testis-specific serine/threonine-protein kinase 1 (Homo sapiens) (UniProt Q9BXA7); assay: Inhibition of human TSSK1 at 1 uM using substrate peptide by off-chip mobility shift assay
Sequence of Testis-specific serine/threonine-protein kinase 1 (Homo sapiens) (Q9BXA7 whole entry): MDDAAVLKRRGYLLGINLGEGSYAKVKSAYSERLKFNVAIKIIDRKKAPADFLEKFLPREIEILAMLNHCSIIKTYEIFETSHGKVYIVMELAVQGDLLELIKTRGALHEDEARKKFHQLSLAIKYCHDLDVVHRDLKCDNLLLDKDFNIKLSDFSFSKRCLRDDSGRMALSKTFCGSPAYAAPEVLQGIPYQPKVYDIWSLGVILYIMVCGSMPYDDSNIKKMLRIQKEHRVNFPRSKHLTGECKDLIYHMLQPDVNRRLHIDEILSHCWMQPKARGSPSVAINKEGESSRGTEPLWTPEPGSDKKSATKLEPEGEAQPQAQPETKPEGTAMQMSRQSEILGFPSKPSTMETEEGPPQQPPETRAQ

[36] = organism: Homo sapiens; assay: Inhibition of human CK1delta at 1 uM using substrate peptide by off-chip mobility shift assay
[37] = biological target: Rho-associated protein kinase 1 (Homo sapiens) (UniProt Q13464); assay: Inhibition of human ROCK1 at 1 uM using substrate peptide by off-chip mobility shift assay
Sequence of Rho-associated protein kinase 1 (Homo sapiens) (Q13464 2-1354 limits assumed): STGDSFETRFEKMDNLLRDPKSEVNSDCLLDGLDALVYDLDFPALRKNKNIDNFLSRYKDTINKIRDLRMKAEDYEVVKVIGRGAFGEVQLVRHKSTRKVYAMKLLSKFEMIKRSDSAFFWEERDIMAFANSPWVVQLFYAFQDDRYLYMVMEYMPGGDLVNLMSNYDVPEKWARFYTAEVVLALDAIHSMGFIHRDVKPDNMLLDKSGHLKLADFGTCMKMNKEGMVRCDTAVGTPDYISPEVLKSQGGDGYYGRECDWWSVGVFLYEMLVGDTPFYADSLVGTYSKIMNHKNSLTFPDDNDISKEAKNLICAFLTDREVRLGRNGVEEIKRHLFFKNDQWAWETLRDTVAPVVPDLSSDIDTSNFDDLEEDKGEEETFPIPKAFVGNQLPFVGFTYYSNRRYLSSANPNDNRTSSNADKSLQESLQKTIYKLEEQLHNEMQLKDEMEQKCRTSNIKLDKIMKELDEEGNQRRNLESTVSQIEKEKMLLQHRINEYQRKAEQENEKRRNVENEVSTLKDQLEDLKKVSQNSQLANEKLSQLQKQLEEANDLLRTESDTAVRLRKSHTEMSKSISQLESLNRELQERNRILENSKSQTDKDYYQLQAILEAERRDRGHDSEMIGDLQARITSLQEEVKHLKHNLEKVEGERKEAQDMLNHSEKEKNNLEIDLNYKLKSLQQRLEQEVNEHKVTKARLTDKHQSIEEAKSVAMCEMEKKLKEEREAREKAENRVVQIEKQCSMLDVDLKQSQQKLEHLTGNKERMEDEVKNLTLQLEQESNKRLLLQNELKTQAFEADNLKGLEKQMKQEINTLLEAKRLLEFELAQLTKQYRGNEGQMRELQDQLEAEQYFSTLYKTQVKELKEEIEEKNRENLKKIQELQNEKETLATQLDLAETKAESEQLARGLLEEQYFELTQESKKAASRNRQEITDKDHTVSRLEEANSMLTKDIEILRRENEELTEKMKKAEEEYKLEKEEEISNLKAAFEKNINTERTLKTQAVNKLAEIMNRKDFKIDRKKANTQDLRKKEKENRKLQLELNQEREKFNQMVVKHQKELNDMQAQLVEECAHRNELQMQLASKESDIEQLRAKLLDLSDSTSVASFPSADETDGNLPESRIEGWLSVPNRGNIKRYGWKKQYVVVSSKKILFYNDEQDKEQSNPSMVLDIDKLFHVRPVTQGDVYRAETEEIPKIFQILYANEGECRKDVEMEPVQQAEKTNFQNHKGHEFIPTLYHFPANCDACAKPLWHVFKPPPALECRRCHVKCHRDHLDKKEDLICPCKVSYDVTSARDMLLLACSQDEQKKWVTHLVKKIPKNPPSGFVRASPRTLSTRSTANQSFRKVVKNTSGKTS

[38] = biological target: CDK4/Cyclin D3 (Homo sapiens) (UniProt P11802+P30281); assay: Inhibition of human CDK4/CycD3 at 1 uM using substrate peptide by off-chip mobility shift assay; format: protein-complex assay
[39] = biological target: Serine/threonine-protein kinase D2 (Homo sapiens) (UniProt Q9BZL6); assay: Inhibition of human PKD2 at 1 uM using substrate peptide by off-chip mobility shift assay
[40] = biological target: CDK3/Cyclin E (Homo sapiens) (UniProt P24864+Q00526); assay: Inhibition of human CDK3/CycE1 at 1 uM using substrate peptide by off-chip mobility shift assay; format: protein-complex assay

Sequence of Dual specificity tyrosine-phosphorylation-regulated kinase 1B (Homo sapiens) (Q9Y463 whole entry, looked up): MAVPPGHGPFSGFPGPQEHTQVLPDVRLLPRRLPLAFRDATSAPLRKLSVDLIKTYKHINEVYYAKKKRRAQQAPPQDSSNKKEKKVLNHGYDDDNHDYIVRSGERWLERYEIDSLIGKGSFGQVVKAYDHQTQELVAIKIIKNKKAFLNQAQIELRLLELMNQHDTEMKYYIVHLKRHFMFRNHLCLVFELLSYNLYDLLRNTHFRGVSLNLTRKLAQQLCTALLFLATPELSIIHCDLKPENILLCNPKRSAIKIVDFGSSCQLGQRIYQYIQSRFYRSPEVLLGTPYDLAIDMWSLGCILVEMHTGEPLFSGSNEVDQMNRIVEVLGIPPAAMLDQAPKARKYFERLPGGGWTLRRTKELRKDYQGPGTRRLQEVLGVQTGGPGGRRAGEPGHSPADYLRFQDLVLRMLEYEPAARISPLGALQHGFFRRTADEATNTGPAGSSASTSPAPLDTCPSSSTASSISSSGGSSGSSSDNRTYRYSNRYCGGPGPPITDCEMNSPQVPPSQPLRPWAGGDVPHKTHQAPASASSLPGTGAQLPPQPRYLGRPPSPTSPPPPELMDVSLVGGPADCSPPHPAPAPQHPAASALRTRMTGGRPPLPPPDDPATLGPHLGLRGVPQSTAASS

For `CC(=O)c1ccc(C(N)=O)cc1Oc1ccc(OCCOC2CCOCC2)cc1`, the inhibition [1] was “inactive”, the inhibition [2] was “inactive” and the inhibition [3] was “inactive”. The inhibition [4] was “inactive”, the inhibition [5] was “inactive” and the inhibition [6] was “inactive”. For the same compound, the inhibition [7] was “inactive”, the inhibition [8] was “inactive” and the inhibition [9] was “inactive”. The inhibition [10] was “inactive”, the inhibition [11] was “inactive” and the inhibition [12] was “inactive”. For the same compound, the inhibition [13] was “inactive”, the inhibition [14] was “inactive” and the inhibition [15] was “inactive”. For the same compound, the inhibition [16] was “inactive”, the inhibition [17] was “inactive” and the inhibition [18] was > 90%. The inhibition [19] was “inactive”, the inhibition [20] was “inactive” and the inhibition at 1 µM [21] was ≥ 50%. For the same compound, the inhibition [22] was “inactive”, the inhibition [23] was “inactive” and the inhibition [24] was “inactive”. The inhibition [25] was “inactive”, the inhibition [26] was “inactive” and the inhibition [27] was “inactive”. For the same compound, the inhibition [28] was > 90%, the inhibition [29] was “inactive” and the inhibition [30] was “inactive”. The inhibition [31] was “inactive”, the inhibition [32] was “inactive” and the inhibition [33] was “inactive”. The inhibition [34] was “inactive”, the inhibition [35] was “inactive” and the inhibition [36] was “inactive”. The inhibition [37] was “inactive”, the inhibition [38] was “inactive” and the inhibition [39] was “inactive”. For the same compound, the inhibition [40] was “inactive”.
`COc1cc(Nc2ccc(N3CCN(CC(C)(C)C(=O)O)CC3)cc2)c([N+](=O)[O-])cc1F` was tested, and the inhibition [28] was > 90%.
With `CC(=O)c1ccc(C(N)=O)cc1Nc1ccc(OCCOCCCC(=O)O)cc1` the inhibition [28] was > 90%.
`CC(C)OCCOCCOc1ccc(Oc2cc(C(N)=O)ccc2C(F)(F)F)cc1` was tested, and the inhibition [28] was > 90%.
In the case of `NC(=O)c1ccc([N+](=O)[O-])c(Nc2ccc(OCCOC3CCOCC3)cc2)c1`, the inhibition at 1 µM [21] is reported as ≥ 50% and the inhibition [28] is reported as > 90%.
`CC(=O)c1ccc(C(N)=O)c(Oc2ccc(N3CC(OCCO)C3)cc2)c1` was tested, and the inhibition [28] was > 90%.
`NC(=O)c1ccc(C(F)(F)F)c(Oc2ccc(OCCOC3CCOCC3)cc2)c1` was tested, and the inhibition at 1 µM [21] was ≥ 50% and the inhibition [28] was > 90%.
For `CC(=O)c1ccc(C(N)=O)cc1Oc1ccc(OCCOCCOC(C)C)cc1`, the inhibition at 1 µM [21] was ≥ 50% and the inhibition [28] was > 90%.
In the case of `CC(=O)c1ccc(C(N)=O)cc1Oc1ccc(N2CC(OCCO)C2)cc1`, the inhibition at 1 µM [21] is reported as ≥ 50% and the inhibition [28] is reported as > 90%.
In the case of `C=C(F)c1ccc(C(N)=O)cc1Oc1ccc(OCCOC2CCOCC2)cc1`, the inhibition at 1 µM [21] is reported as ≥ 50% and the inhibition [28] is reported as > 90%.
For `CC(=O)c1ccc(C(N)=O)cc1Oc1ccc(OCCOC2CCOC2)cc1` (configuration not stated), the inhibition at 1 µM [21] was ≥ 50% and the inhibition [28] was > 90%.
In the case of `CNC(=O)c1ccc([N+](=O)[O-])c(Nc2ccc(N3CC(OCCO)C3)cc2)c1`, the inhibition at 1 µM [21] is reported as ≥ 50% and the inhibition [28] is reported as > 90%.
In the case of `NC(=O)c1ccc([N+](=O)[O-])c(Nc2ccc(N3CC(OCCO)C3)cc2)c1`, the inhibition at 1 µM [21] is reported as ≥ 50% and the inhibition [28] is reported as > 90%.
For `C[C@@H](O)c1ccc(C(N)=O)cc1Oc1ccc(OCCOC2CCOCC2)cc1`, the inhibition [18] was > 90% and the inhibition [28] was > 90%.

— ChEMBL document CHEMBL4739709, “Novel cyclin-dependent kinase 8 and/or 19 inhibitor” (2020)
